pIC50: −log10 of the molar value.
Assays:
5-lipoxygenase = molecular target: T1, 5-lipoxygenase (Rattus norvegicus, UniProt P12527); assay: Inhibition of Cell-free 5-lipoxygenase from RBL-1-cells (polarographic, 10,000 × g supernatant); assay type: biochemical; details: 10,000 × g supernatant of homogenized RBL-1-cells; arachidonic acid 75 μM; 35° C.; calculated IC50
T1 construct: endogenous in cells; host or cells: RBL-1 cells (rat basophilic leukemia)
T1 sequence (P12527 1-673): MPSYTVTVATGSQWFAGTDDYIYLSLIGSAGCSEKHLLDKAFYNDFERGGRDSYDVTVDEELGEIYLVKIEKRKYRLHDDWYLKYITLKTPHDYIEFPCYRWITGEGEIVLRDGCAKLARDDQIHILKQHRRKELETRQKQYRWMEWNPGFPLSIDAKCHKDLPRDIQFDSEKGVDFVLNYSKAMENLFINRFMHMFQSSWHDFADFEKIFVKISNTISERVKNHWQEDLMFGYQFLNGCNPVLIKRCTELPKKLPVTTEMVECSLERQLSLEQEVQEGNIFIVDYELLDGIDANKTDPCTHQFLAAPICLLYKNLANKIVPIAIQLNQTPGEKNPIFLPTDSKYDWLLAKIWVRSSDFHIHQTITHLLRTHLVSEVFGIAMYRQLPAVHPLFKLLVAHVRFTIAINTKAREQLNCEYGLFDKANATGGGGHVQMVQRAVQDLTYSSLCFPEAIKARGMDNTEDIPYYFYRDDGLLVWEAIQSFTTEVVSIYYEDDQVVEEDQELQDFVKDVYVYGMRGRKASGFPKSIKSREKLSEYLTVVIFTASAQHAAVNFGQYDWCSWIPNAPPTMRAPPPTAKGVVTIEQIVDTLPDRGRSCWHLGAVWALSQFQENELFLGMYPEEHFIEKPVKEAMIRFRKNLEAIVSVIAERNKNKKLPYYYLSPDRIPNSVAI
Procedure: Cell-free 5-lipoxygenase was polarographically measured from 10,000 × g supernatant of homogenized rat basophilic leucemia cells (M. Haurand & L. Flohe in Biol. Chem. Hoppe-Seyler 369, 133 to 142 (1988)). After preincubation of the 10,000 × g supernatant with arachidonic acid (75 μM), ATP (adenosine triphosphate; 4 mM), reduced glutathione (4 mM), and either a compound according to the invention (0.1 to 100 μM) or a solvent (ethanol and/or dimethyl sulfoxide) at 35° C. for 5 minutes, the lipoxygenase reaction was initiated by addition of calcium chloride (3 mM) and simultaneously recorded.
The activity of 5-lipoxygenase was determined from the difference in the pO2 -decrease before and after addition of calcium chloride. The evaluation included the initial rate of the reaction after the lag-phase as well as the duration of the lag-phase. In the concentration range of from 3 to 50 μM, the test substances induced lag-phases between 20 and 60 seconds.

12-lipoxygenase [1] = molecular target: T2, 12-lipoxygenase (Homo sapiens, UniProt P18054); assay: Inhibition of 12-lipoxygenase in human blood; assay type: cell-based; set-up: 3 ml aliquots of human whole blood treated with heparin; from tissue; host or cells: human whole blood (heparinized); details: human whole blood; calcium ionophore A 23 187 15 μg/ml; 37° C., 30 minutes; 12-HETE by HPLC
T2 sequence (P18054 1-663): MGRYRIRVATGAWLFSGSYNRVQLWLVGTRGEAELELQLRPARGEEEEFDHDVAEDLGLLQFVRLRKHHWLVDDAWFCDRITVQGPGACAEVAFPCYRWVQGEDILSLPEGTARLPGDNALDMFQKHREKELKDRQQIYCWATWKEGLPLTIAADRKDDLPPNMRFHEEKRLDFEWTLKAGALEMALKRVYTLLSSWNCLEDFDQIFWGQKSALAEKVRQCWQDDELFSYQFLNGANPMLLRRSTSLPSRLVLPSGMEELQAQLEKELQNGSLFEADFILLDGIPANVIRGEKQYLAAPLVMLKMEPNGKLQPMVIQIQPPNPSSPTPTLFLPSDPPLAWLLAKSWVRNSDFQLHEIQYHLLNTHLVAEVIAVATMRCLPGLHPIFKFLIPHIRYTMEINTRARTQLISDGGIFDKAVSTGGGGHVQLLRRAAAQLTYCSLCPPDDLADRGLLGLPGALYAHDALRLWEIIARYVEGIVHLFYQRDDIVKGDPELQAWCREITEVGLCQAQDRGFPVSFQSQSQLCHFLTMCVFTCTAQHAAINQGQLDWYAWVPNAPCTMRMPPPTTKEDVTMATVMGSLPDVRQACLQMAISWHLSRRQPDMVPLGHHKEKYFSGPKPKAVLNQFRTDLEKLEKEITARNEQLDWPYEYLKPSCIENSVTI
Procedure: 3 ml aliquots of human whole blood treated with heparin were incubated either with a compound according to the invention or with dimethyl sulfoxide at 37° C. for 5 minutes. Then 12-lipoxygenase was activated by addition of calcium ionophore A 23 187 (15 μg/ml blood). After incubation at 37° C. for 30 minutes and centrifugation, cell-free plasma was obtained. Plasma protein was precipitated by addition of 2 ml of ethanol per ml of plasma and then separated by centrifugation. After adjusting the ethanol content in the supernatant with water to 10% by volume, the 12-lipoxygenase product 12-HETE was enriched by solid phase extraction using an octadecyl silica column. The methanolic eluate was evaporated to dryness, diluted in 40% by volume of methanol, and the 12-HETE-content was determined by HPLC. The IC50 -values of the compounds of the invention prepared according to Examples 1, 8 and 16 were 2, 4 and 3 μmolar, respectively.

12-lipoxygenase [2] = molecular target: T2, 12-lipoxygenase; assay: Inhibition of 12-HETE- and 5S,12S-DiHETE-synthesis induced by FMLP/merthiolate of human polymorphonuclear leukocytes and thrombocytes; assay type: cell-based; details: coincubation of human granulocytes and thrombocytes, read-out: IC50-value of the inhibitory action on 12-lipoxygenase
Procedure: Human granulocytes were isolated by dextran sedimentation and a Percoll gradient method and suspended in HBSS (Hanks buffered saline solution) at 1×10^7 cells/ml. The cells were incubated in the presence of a compound according to the invention or a solvent (ethanol and/or dimethyl sulfoxide) at 37° C. for 2 minutes, then with merthiolate (sodium ethylmercurithiosalicylate; 40 μM) for 2 minutes and thereafter with FMLP (formyl-methionyl-leucylphenylalanine; 10^-7 M) for 15 minutes. After solid phase extraction, the metabolites of arachidonic acid 5-HETE, LTB4, 6-trans-LTB4 -isomers, 20-OH-LTB4 and 20-COOH-LTB4 were identified by RP-HPLC (M. Haurand and L. Flohe in Biochem. Pharmacol. 38, 2129 to 2137 (1989)).
Coincubations of human granulocytes and thrombocytes were carried out and investigated for inhibition of leukotriene-synthesis induced by FMLP/merthiolate. 12-HETE and 5S, 12S-DiHETE were additionally included into the evaluation. The IC50 -value of the inhibitory action on 12-lipoxygenase was 5 μmolar when the compound prepared according to Example 1 was used.

CC(=O)N(O)Cc1ccc(C(O)C#Cc2ccccc2)cc1 (racemic) [Example 1, N-Hydroxy-N-[4-[1-hydroxy-3-phenyl-prop-2-yn-1-yl]benzyl]acetamide]
pIC50 (5-lipoxygenase): 5.30
pIC50 (12-lipoxygenase [1]): 5.70
pIC50 (12-lipoxygenase [2]): 5.30
